pIC50: −log10 of the molar value.
Columns and labels:
MT4 = experiment: Cytotoxicity against human MT4 cells assessed as reduction in cell viability by CellTiter-Glo luminescent cell viability assay; assay type: functional
[1] = tested on: Human immunodeficiency virus 1; experiment: Anti-HIV activity against HIV-1 NL4-3 Nanoluc-sec virus infected in human MT4 cells assessed as luciferase activity and measured 3 days post-infection by Nano-Glo luciferase assay; assay type: functional, organism-based; conditions: Human immunodeficiency virus 1, NL4-3, MT4, 72 h

| Compound | CC50 (MT4) [nM] | pIC50 [1] |
| --- | --- | --- |
| CCCCCCCCCC(=O)O[C@@]12[C@H](OC(=O)c3ccccc3)[C@@H](C)[C@]3(O)[C@@H]4C=C(C)C(=O)[C@@]4(O)[C@H](O)C(CO)=C[C@H]3[C@@H]1C2(C)C | > 7000 | 8.82 |
| CCCCCC/C=C/CC(=O)O[C@@]12[C@H](OC(=O)c3ccccc3)[C@@H](C)[C@]3(O)[C@@H]4C=C(C)C(=O)[C@@]4(O)[C@H](O)C(CO)=C[C@H]3[C@@H]1C2(C)C | > 7000 | 8.82 |
| CCCCCC/C=C/CC(=O)O[C@@]12[C@H](OC(=O)c3ccccc3)[C@@H](C)[C@@]3(O)[C@@H](C=C(CO)C[C@]4(O)C(=O)C(C)=C[C@@H]34)[C@@H]1C2(C)C | > 7000 | 8.96 |
| CCCC/C=C/C=C/CC(=O)O[C@@]12[C@H](OC(=O)c3ccccc3)[C@@H](C)[C@@]3(O)[C@@H](C=C(CO)C[C@]4(O)C(=O)C(C)=C[C@@H]34)[C@@H]1C2(C)C | > 7000 | 8.52 |
| C=C(C)[C@]12C[C@@H](COC(=O)c3ccccc3)[C@@]34OC5(O[C@@H]1[C@@H]3[C@@H]1O[C@]1(CO)[C@@H](O)[C@@]1(O)[C@H]4[C@H]([C@H](C)[C@@H]1OC(=O)c1ccccc1)[C@H](C)CCCCCC[C@H]5O)O2 | > 7000 | 9.82 |
| CCCC/C=C/C=C/CC(=O)O[C@@]12[C@H](OC(=O)c3ccccc3)[C@@H](C)[C@]3(O)[C@@H]4C=C(C)C(=O)[C@@]4(O)[C@H](O)C(CO)=C[C@H]3[C@@H]1C2(C)C | > 7000 | 7.18 |
